Entries after “also recorded” stand apart in the source; their conditions may differ.
What was measured:
[1] = tested on: MHV-68; assay: Survival after lethal intraperitoneal MHV-68 infection of IFNγR−/− mice; format: in vivo; conditions: for survival after MHV-68 infection (modified S-7 peptides): MHV-68 infection model; for survival at 150 days: 100 ng/g IP injections for 30 days, no antibiotics, MHV-68 infected IFNγR−/− mice; for median survival: 10 days antibiotic pre-treatment, then MHV-68 infection and 30 days IP treatment; for efficacy after antibiotic treatment versus saline treatment after antibiotics: +Abx vs Saline+Abx, survival
Source text: Animals. IFNγR^−/− mice (B6.129S7-Ifngr1^tm1Agt/J) were purchased from the Jackson Laboratory (Bar Harbor, ME, USA). Animals were housed in barrier conditions at the University of Florida Animal Care Services vivarium and bred under specific pathogen-free conditions. Mice were weaned at 3 weeks, maintained on a 12-hour light-dark cycle and were fed water and standard rodent chow ad libitum.
Antibiotic treatment. At 4 weeks of age, IFNγR^−/− mouse cohorts were transferred from the ABSL1 colony to a separate, ABSL2 colony. Gut microbiome suppression was achieved by replacing standard drinking water with autoclaved reverse osmosis water (obtained from the same animal care facility) containing an antibiotic cocktail (Table 1) composed of Streptomycin (2 g/L), Gentamicin (0.5 g/L), Bacitracin (1 g/L) and Ciprofloxacin (0.125 g/L) for 10 days. One day (24 hours) prior to infection, medicated water was replaced with standard animal care facility water, which was maintained for the remainder of the experiment.
MHV-68 infection. On day 11 (after 10 days of antibiotics) mice (5 weeks old) were infected with MHV-68 at a dose of 12.5×10^6 PFU in 0.1 mL DMEM by intraperitoneal (IP) injection as previously described22,25,27,30. Mice were returned to the colony and monitored for signs of distress for the duration of the experiment. Mice were either followed for 150 days to determine survival or euthanized at 3 days post-infection and organs harvested into formalin for histology or RNAlater (Thermo Scientific, USA) for microbiome analyses. Details on the numbers of MHV-68-infected mice in this study are detailed in Table 2.
Statistical analysis. Survival and pathology statistics were analyzed with GraphPad Prism v8.0.1. Kaplan-Meier survival statistics were calculated using Log-rank (Mantel-Cox) testing. For visualization, individual comparison curves are presented. Lung pathology statistics were compared using a Two-Way ANOVA with a Fisher's LSD or Tukey's post-hoc test. Bars are mean±standard error. P-value less than 0.05 was considered significant. *p<0.05, **p<0.01, ***p<0.001, ****p<0.0001; n.s. is not significant.
MHV-68 infections establish latency with chronic infection in wildtype mice, causing only flu-like symptoms. Conversely, intraperitoneal infection of mice with underlying immune deficiency, as for IFNγR^−/− mice, results in a lethal large vessel vasculitis, colitis and hemorrhagic pneumonia with early mortality. Intranasal infection, an alternative model for MHV-68, is not a model for severe vasculitic syndromes. This intraperitoneal infection model of vasculitis has been used to study the pathogenesis of gammaherpesvirus host-pathogen interactions, as well as to investigate the potential for anti-inflammatory treatment of associated inflammatory vasculitic syndromes. Intraperitoneal infection of IFNγR−/− mice with 12.5×10^6 pfu was performed with follow-up for 150 days to determine survival rates. MHV-68 infection with administration of control saline treatment alone for 30 days was lethal, with a median survival of 41 days. […] Thus, Serp-1 and S-7 protect IFNγR−/− mice after lethal MHV-68 infection.
The potential for dependence of Serp-1 and S-7 therapeutic efficacy on the gut bacterial microbiome in MHV-68 infected IFNγR^−/− mice was investigated. Mice were treated with medicated drinking water (Table 1) for 10 days, placed on normal water for 24 hours, then infected with MHV-68 and concurrently treated for 30 days with either Serp-1 or S-7 by IP injection. Mice were followed for survival or 3-day follow-up (FIG. 2A).

[2] = tested on: MHV-68; assay: MHV-68 antigen immunostaining in lungs at 3 days after infection; format: in vivo, mice; conditions: for MHV-68 antigen levels in the lungs: without antibiotic treatment, 3-day follow-up
Procedure: (§1) Immunohistochemistry. FFPE blocks containing lung tissue were sectioned into 4-6 μm ribbons, captured on charged glass and dried overnight at 37° C. prior to processing. Slides were rehydrated and epitopes retrieved by boiling in sodium citrated buffer. Endogenous peroxidases were quenched with 3% hydrogen peroxide, slides were blocked in 5% bovine serum albumin in TBS/0.1% Tween 20 and sections were probed with rabbit polyclonal antibody against CD3 (Abcam ab5690; 1:200), CD4 (Abcam ab183685; 1:1000) or CD8 (Abcam ab209775; 1:2000). For MHV-68 detection, 1:500 rabbit anti-serum or pre-immune serum (as control) were used for immunostaining (kind gift of Dr. H. W. Virgin 1119). 1:500 goat anti-rabbit HRP was used for secondary staining (Jackson Immuno Research 111-035-144). […] Sections were imaged with a 40×/0.75NA objective.

[3] = tested on: CD3+, CD4+ and CD8+ cells in the lungs; assay: Immunohistochemistry of CD3+, CD4+, CD8+ cells in lungs at 3 days after MHV-68 infection; format: in vivo, mice; conditions: for CD3 infiltration-promoting effect and CD8 bias after antibiotic treatment: after antibiotic depletion of gut microbiome; for CD8+ staining in lungs / detectable CD3+ cells in the lungs / pulmonary CD4+ cells: no antibiotics, 3-day follow-up
Procedure: as §1

[4] = tested on: MHV-68; assay: Lung histopathology and quantitative morphometry at 3 days after MHV-68 infection; format: in vivo, mice; conditions: for severe pulmonary pathology (consolidation and inflammation): absence of antibiotics, vs saline; for severe pulmonary pathology (consolidation and inflammation) / early lung pathology after antibiotic treatment: 3-day follow-up; for alveolar wall thickness: no antibiotics, versus saline-treated controls; for alveolar lumen area: without antibiotic pre-treatment, compared to saline-treated controls
Procedure: Histopathology. Mice were euthanized at 3 days follow-up after infection by carbon dioxide asphyxiation followed by cervical dislocation. Organs were harvested and fixed in 10% neutral buffered formalin. Samples were dehydrated through graded alcohol, paraffin-embedded, sectioned into 4-6 μm ribbons, captured on charged glass and dried overnight at 37° C. prior to processing for histopathology. Slides were rehydrated, stained with Gill's hematoxylin No. 3 and Eosin Y (H&E) according to standard procedure, dehydrated and mounted in Cytoseal XYL (Thermo Fisher Scientific, USA).
Quantitative morphometry. H&E-stained aorta, lung and colon sections were imaged with a 20×/0.5NA objective on an Olympus BX51 microscope equipped with an Olympus DP74 camera operated by cellSens Dimensions v1.16 software. Objective-calibrated measurements of alveolar septal thickness and lumen area were collected using cellSens Dimensions. At least 50 measurements were collected and averaged for each mouse, and at least three mice were examined for each group. Images were processed for visualization in figures using ImageJ/FIJI v1.52i92.

[5] = molecular target: uPA (Homo sapiens, UniProt P00749); assay: In vitro uPA substrate conversion assay; format: biochemical; conditions: presence of the antibiotic cocktail

GTTASSDTAITLEPR (Modified S-7 peptide MPS7-8)
survival after MHV-68 infection (modified S-7 peptides) [1]: improved survival

GTTASSDTAITDEPR (Modified S7 peptide MPS7-9)
survival after MHV-68 infection (modified S-7 peptides) [1]: improved survival

GTTASSDTAITLIPR (Reactive Center Loop Polypeptide sequence of for a serine protease inhibitor) [S-7]
decrease in detectable MHV68 after antibiotic pre-treatment [2]: partially reversed | MHV-68 antigen levels in the lungs [2]: significantly reduced | CD3 infiltration-promoting effect and CD8 bias after antibiotic treatment [3]: loss | CD8+ staining in lungs [3]: significant increases | detectable CD3+ cells in the lungs [3]: significantly increased | pulmonary CD4+ cells [3]: no appreciable effect | severe pulmonary pathology (consolidation and inflammation) [4]: considerably reduced | early lung pathology after antibiotic treatment [4]: markedly worse | alveolar lumen area protection after antibiotic treatment ([4]; after antibiotics): nullified any level of protection | reduction in alveolar wall thickness after treatment with antibiotics ([4]; after antibiotics): lost | alveolar wall thickness [4]: significant reduction | alveolar lumen area [4]: significantly increased | survival at 150 days [1]: 60% | median survival [1]: 18 days | efficacy after antibiotic treatment versus saline treatment after antibiotics [1]: not significantly different

B1: Serp-1: secreted myxomavirus-derived serine protease inhibitor (serpin), purified protein, SEQ ID NO: 1 (protein)
chain: MKYLVLVLCLTSCACRDIGLWTFRYVYNESDNVVFSPYGLTSALSVLRIAAGGNTKREIDVPESVVEDSDAFLALRELFVDASVPLRPEFTAEFSSRFNTSVQRVTFNSENVKDVINSYVKDKTGGDVPRVLDASLDRDTKMLLLSSVRMKTSWRHVFDPSFTTDQPFYSGNVTYKVRMMNKIDTLKTETFTLRNVGYSVTELPYKRRQTAMLLVVPDDLGEIVRALDLSLVRFWIRNMRKDVCQVVMPKFSVESVLDLRDALQRLGVRDAFDPSRADFGQASPSNDLYVTKVLQTSKIEADERGTTASSDTAITLIPRNALTAIVANKPFMFLIYHKPTTTVLFMGTIT
modifications: Serp-1 recombinant polypeptide
inhibition of uPA activity in presence of broad-spectrum antibiotic cocktail [5]: unaffected; also recorded: not affected | decrease in detectable MHV68 after antibiotic pre-treatment [2]: partially reversed | MHV-68 antigen levels in the lungs [2]: significantly reduced | CD3 infiltration-promoting effect and CD8 bias after antibiotic treatment [3]: loss | CD8+ staining in lungs [3]: strong trend towards increase | detectable CD3+ cells in the lungs [3]: trended towards increasing | pulmonary CD4+ cells [3]: no appreciable effect | severe pulmonary pathology (consolidation and inflammation) [4]: considerably reduced | early lung pathology after antibiotic treatment [4]: markedly worse | reduction in alveolar wall thickness after treatment with antibiotics ([4]; after antibiotics): lost | alveolar wall thickness [4]: significant reduction | alveolar lumen area [4]: trend toward an increase | survival at 150 days [1]: 60% | median survival [1]: 19 days | efficacy after antibiotic treatment versus saline treatment after antibiotics [1]: not significantly different

From patent US12029777B2, “Serine proteinase inhibitors: Serp-1 and Serp-1 RCL-derived peptides effect on microbiome composition and uses thereof” (ARIZONA BOARD OF REGENTS ON BEHALF OF ARIZONA STATE …, priority 2019, dated 2024)
